Assay [1] relates to Bacteria. The assay can be described thus: in vitro antibacterial activity, serial dilution, stated for the bacteria as a whole. It counts as cell-based. Conditions: at the highest concentrations tested (62.5-500 mcg/ml). The protocol: (§1) The in vitro antibacterial activity of the compounds of the invention was determined by conventional serial dilution procedures. Bacterial cultures were grown in tryptose phosphate broth or brain heart infusion broth (containing heat-inactivated normal horse serum for tests with S. pyogenes) overnight at 37° C. and subsequently diluted in double strength broth to provide bacterial inocula of about 2×10^5 cells/ml. Aqueous solutions of the compounds of Formula I where R" is hydrogen were prepared by dissolving the free acid form in 0.5N sodium hydroxide. The solutions were diluted with sterile distilled water to 1000 mcg/ml of compound in terms of the free acid. Serial two-fold dilutions of the compound stock solutions were prepared in water and 0.5 ml of each dilution was transferred to sets of tubes, one set for each bacterial inoculum. Each tube was then inoculated with 0.5 ml of the appropriate culture, resulting in a final bacterial concentration of about 1×10^5 cells/ml. The minimal inhibitory concentration (MIC), defined as the lowest concentration of the test compound to inhibit visible bacterial growth, was recorded after 18-20 hours of static incubation at 37° C. The results are recorded in Table I:
These are intermediates for the compounds of Examples 5 and 7.

In assay [2] the test system is Escherichia coli Vogel. The assay can be described thus: in vivo antibacterial activity in infected female mice (E. coli). Conditions: sc, 168 h, E. coli i.p. infection, medicated once s.c. one-half hour post infection, deaths recorded for seven days, read-out: Protective Dose (PD50). The protocol:
(§2) The in vivo antibacterial activity of the compounds of the invention was determined in female mice, 18-20 grams each, by the following procedure:
(§3) Aqueous solutions of the compounds of Formula I where R" is hydrogen were prepared by dissolving the free acid form in dilute sodium hydroxide and diluting the solution with distilled water to the desired volume.
(§4) Cultures of Escherichia coli Vogel prepared in brain heart infusion broth, and cultures of Klebsiella pneumoniae 39645 grown in tryptose phosphate broth with 5% rabbit serum diluted in the same broth were used to infect the mice as follows:
E coli: mice were inoculated intraperitoneally with 0.5 ml of the bacerial test inoculum (1.87×10^7 and 5×10^6 cells/ml respectively).
Mice infected with E. coli were medicated once (0.5 ml) one-half hour post infection, the test compound being administered by the subcutaneous (s.c.) route. Deaths were recorded daily for seven days.
(§5) Groups of ten animals each for four or five dose levels were thus treated and the number of survivors in each group recorded. The fifty percent protective dose values (PD50) were then calculated.

In assay [3] the test system is Klebsiella pneumoniae 39645. The assay can be described thus: in vivo antibacterial activity in infected female mice (K. pneumoniae). As to conditions: Klebsiella pneumoniae, 39645, sc, 336 h, K. pneumoniae i.m. infection, s.c. 17 h and 1 h preinfection, 6 h postinfection, twice a day for next three days, deaths recorded for fourteen days, read-out: Protective Dose (PD50). The protocol: as §2, §3, §4
K. pneumoniae: mice were inoculated intramuscularly in the right hind leg with 0.2 ml of the bacterial test inoculum (2.05×10^4 cells/ml).
Mice infected with K. pneumoniae were medicated at the following times: seventeen hours and one hour preinfection, six hours postinfection and twice a day for the next three days. The test compound was administered the subcutaneous (0.2 ml) route. Deaths were recorded daily for fourteen days.
as §5

In assay [4] the test system is Streptococcus pyogenes C203. The assay can be described thus: in vitro antibacterial activity, serial dilution (MIC). Type of assay: cell-based. Conditions: broth containing heat-inactivated normal horse serum, 18-20 hours at 37° C., about 1×10^5 cells/ml, read-out: Minimal Inhibitory Concentration. The protocol:
as §1, with “C.” for “C. The results are recorded in Table I:”

Assay [5] has as its system Staphylococcus aureus Smith. The description is as above. Conditions: 18-20 hours at 37° C., about 1×10^5 cells/ml, read-out: Minimal Inhibitory Concentration. Type of assay: cell-based. The protocol:
as §1, with “C.” for “C. The results are recorded in Table I:”

Assay [6] deals with Proteus vulgaris 9920. Described as above. It counts as cell-based. Conditions: 18-20 hours at 37° C., about 1×10^5 cells/ml, read-out: Minimal Inhibitory Concentration. Here is the method: as §1, with “C.” for “C. The results are recorded in Table I:”
Assay [7] relates to Klebsiella pneumoniae 39645. The description is as above. Conditions: 18-20 hours at 37° C., about 1×10^5 cells/ml, read-out: Minimal Inhibitory Concentration. Type of assay: cell-based. Here is the method: as §1, with “C.” for “C. The results are recorded in Table I:”
The subject of assay [8] is Pseudomonas aeruginosa MGH-2. Described as above. It counts as cell-based. As to conditions: MGH2, 18-20 hours at 37° C., about 1×10^5 cells/ml, read-out: Minimal Inhibitory Concentration. Here is the method: as §1, with “C.” for “C. The results are recorded in Table I:”
The subject of assay [9] is Proteus mirabilis MGH-1. The description is as above. It counts as cell-based. Conditions: MGH1, 18-20 hours at 37° C., about 1×10^5 cells/ml, read-out: Minimal Inhibitory Concentration. Here is the method:
as §1, with “C.” for “C. The results are recorded in Table I:”

The subject of assay [10] is Escherichia coli Vogel. The assay is described as above. Type of assay: cell-based. Conditions: 18-20 hours at 37° C., about 1×10^5 cells/ml, read-out: Minimal Inhibitory Concentration. Here is the method:
as §1, with “C.” for “C. The results are recorded in Table I:”

≈ marks a conversion by molar mass, not a printed value.

Take `CCOC(=O)c1cn(N(C)C=O)c2nc(C)ccc2c1=O` [Example 4, Ethyl 1-(N-formylmethylamino)-1,4-dihydro-7-methyl-4-oxo-1,8-naphthyridine-3-carboxylate]: the “in vitro antibacterial activity” value in assay [1] is “inactive”.

In the case of `CCOC(=O)c1cn(N)c2nc(C)ccc2c1=O` [Example 1, Ethyl 1-amino-1,4-dihydro-7-methyl-4-oxo-1,8-naphthyridine-3-carboxylate], in assay [1], the “in vitro antibacterial activity” value was “inactive”.

Consider `CCOC(=O)c1cn(N(C=O)CC)c2nc(C)ccc2c1=O` [Example 6, Ethyl 1-(N-formylethylamino)-1,4-dihydro-7-methyl-4-oxo-1,8-naphthyridine-3-carboxylate], for which the ED50 in assay [2] is 53.5 mg/kg; in assay [3], greater than 200 mg/kg. Moreover, the “in vitro antibacterial activity” value in assay [1] is “inactive”.

Consider `CNn1cc(C(=O)O)c(=O)c2ccc(C)nc21` [Example 5, 1,4-Dihydro-7-methyl-1-methylamino-4-oxo-1,8-naphthyridine-3-carboxylic acid], for which the ED50 in assay [2] was 141 mg/kg; in [3], greater than 200 mg/kg. Besides, the MIC in [4] is greater than 500 µg/mL; in assay [5] it was greater than 500 µg/mL; in [6] it was 62.5 µg/mL (≈ 268 µM); in [7] it was 62.5 µg/mL (≈ 268 µM); in assay [8], greater than 500 µg/mL; in assay [9] it was 62.5 µg/mL (≈ 268 µM). The MIC in assay [10] is 31.3 µg/mL (≈ 134 µM).

`Cc1ccc2c(=O)c(C(=O)O)cn(N)c2n1` [Example 2, 1-Amino-1,4-dihydro-7-methyl-4-oxo-1,8-naphthyridine-3-carboxylic acid]: the “in vitro antibacterial activity” value in assay [1] was “inactive”.

On to `CCNn1cc(C(=O)O)c(=O)c2ccc(C)nc21` [Example 7, 1-Ethylamino-1,4-dihydro-7-methyl-4-oxo-1,8-naphthyridine-3-carboxylic acid], for which the values for the ED50 in [2] and in assay [3] were 93 mg/kg and greater than 200 mg/kg, respectively. The MIC in [4] was greater than 500 µg/mL; in [5], greater than 500 µg/mL; in assay [6], 15.6 µg/mL (≈ 63.1 µM); in [7], 125 µg/mL (≈ 506 µM); in assay [8], greater than 500 µg/mL; in assay [9], 250 µg/mL (≈ 1010 µM). In assay [10], the MIC came out at 31.3 µg/mL (≈ 127 µM).

Values taken from US4517191A, “1-Amino-1,8-naphthyridine compounds useful as bactericides” (Sterling Drug Inc., priority 1983, dated 1985).
